Reference: patent publication US9650395B2, “Antibacterial compounds and methods for use” (PTC Therapeutics, Inc., priority 2011, dated 2017)
Converted amounts (≈) assume the structure as drawn. Read-outs that look alike come from different tables or passages of the source.

Experiments:
[1] = tested on: Gram-positive Staphylococcus aureus (S. aureus) 29213; test: Antibacterial activity, microbroth dilution MIC, S. aureus 29213; assay type: cell-based; settings: Staphylococcus aureus; S. aureus 29213, microbroth dilution; read-out: MIC, 29213
[2] = tested on: super sensitive Gram-negative Escherichia coli (E. coli) BAS849; test: Antibacterial activity, microbroth dilution MIC, E. coli BAS849; assay type: cell-based; settings: Escherichia coli, read-out: MIC, BAS849
[3] = tested on: control Gram-negative E. coli 25922 strain; test: Antibacterial activity, microbroth dilution MIC, E. coli 25922; assay type: cell-based, Escherichia coli; settings: Escherichia coli; E. coli 25922, microbroth dilution; read-out: MIC, 25922
[4] = E. coli BAS849, microbroth dilution

Row | SMILES | MIC [1] [µg/mL] | MIC [2, 4] [µg/mL] | MIC [3] [µg/mL] | MIC [2] [µg/mL]
1 | CCc1cc(C(=O)OC)c(=O)[nH]c1-c1ccc(N2CCC(OCc3ccccc3)C2)cc1 (stereo not drawn) [Cpd 127, methyl 6-{4-[3-(benzyloxy)pyrrolidin-1-yl]phenyl}-5-ethyl-2-oxo-1,2-dihydropyridine-3-carboxylate] | 12.5 to 150 (≈ 28.9 to 347 µM) | 12.5 to 150 (≈ 28.9 to 347 µM) | 12.5 to 150 (≈ 28.9 to 347 µM) | –
2 | CCc1cc(C(=O)O)c(=O)[nH]c1-c1ccc(N(C)C)cc1OC [Cpd 62, 6-[4-(dimethylamino)-2-methoxyphenyl]-5-ethyl-2-oxo-1,2-dihydropyridine-3-carboxylic acid] | 12.5 to 150 (≈ 39.5 to 474 µM) | 12.5 to 150 (≈ 39.5 to 474 µM) | 12.5 to 150 (≈ 39.5 to 474 µM) | –
3 | CCc1cc(C(=O)O)c(=O)[nH]c1-c1ccc(N2C[C@H]3CCN(Cc4ccccc4)[C@H]3C2)cc1.O=C(O)C(F)(F)F [Cpd 189, 6-{4-[(3aR,6aR)-1-benzylhexahydropyrrolo[3,4-b]pyrrol-5(1H)-yl]phenyl}-5-ethyl-2-oxo-1,2-dihydropyridine-3-carboxylic acid trifluoroacetate] | 12.5 to 150 | – | 3.5 to 12.5 | < 1
4 | CCc1c(-c2ccc(Br)cc2)[nH]c(=O)c(C(=O)O)c1O [Cpd 79, 6-(4-bromophenyl)-5-ethyl-4-hydroxy-2-oxo-1,2-dihydropyridine-3-carboxylic acid] | 3.5 to 12.5 (≈ 10.4 to 37 µM) | < 1 | 12.5 to 150 (≈ 37 to 444 µM) | –
5 | CCc1cc(C(=O)O)c(=O)[nH]c1-c1ccc(N2CCC[C@@H](O)C2)cc1 [Cpd 122, 5-ethyl-6-{4-[(3R)-3-hydroxypiperidin-1-yl]phenyl}-2-oxo-1,2-dihydropyridine-3-carboxylic acid] | 12.5 to 150 (≈ 36.5 to 438 µM) | < 1 | 3.5 to 12.5 (≈ 10.2 to 36.5 µM) | –
6 | CCc1cc(C(=O)O)c(=O)[nH]c1-c1ccccc1N1CCCCC1 [Cpd 31, 5-ethyl-2-oxo-6-[2-(piperidin-1-yl)phenyl]-1,2-dihydropyridine-3-carboxylic acid] | 12.5 to 150 (≈ 38.3 to 460 µM) | 12.5 to 150 (≈ 38.3 to 460 µM) | 12.5 to 150 (≈ 38.3 to 460 µM) | –
7 | CCc1cc(C(=O)O)c(=O)[nH]c1-c1ccc(N2CC(NC(=O)OCc3ccccc3)C2)cc1 [Cpd 171, 6-[4-(3-{[(benzyloxy)carbonyl]amino}azetidin-1-yl)phenyl]-5-ethyl-2-oxo-1,2-dihydropyridine-3-carboxylic acid] | 12.5 to 150 (≈ 27.9 to 335 µM) | 3.5 to 12.5 (≈ 7.82 to 27.9 µM) | 12.5 to 150 (≈ 27.9 to 335 µM) | –
8 | CCc1cc(C(=O)O)c(=O)[nH]c1-c1ccc(N2C[C@@H](O)[C@@H](O)C2)cc1 [Cpd 303, 6-{4-[(3R,4S)-3,4-dihydroxypyrrolidin-1-yl]phenyl}-5-ethyl-2-oxo-1,2-dihydropyridine-3-carboxylic acid] | 12.5 to 150 (≈ 36.3 to 436 µM) | < 1 | 12.5 to 150 (≈ 36.3 to 436 µM) | –
9 | CCc1cc(C(=O)O)c(=O)[nH]c1-c1ccc(N2CC(N)C2)cc1 [Cpd 170, 6-[4-(3-aminoazetidin-1-yl)phenyl]-5-ethyl-2-oxo-1,2-dihydropyridine-3-carboxylic acid] | 12.5 to 150 (≈ 39.9 to 479 µM) | 12.5 to 150 (≈ 39.9 to 479 µM) | 12.5 to 150 (≈ 39.9 to 479 µM) | –
10 | CCc1cc(C(=O)O)c(=O)[nH]c1-c1ccccc1N(C)C [Cpd 54, 6-[2-(dimethylamino)phenyl]-5-ethyl-2-oxo-1,2-dihydropyridine-3-carboxylic acid] | 12.5 to 150 (≈ 43.7 to 524 µM) | 12.5 to 150 (≈ 43.7 to 524 µM) | 12.5 to 150 (≈ 43.7 to 524 µM) | –
11 | CCc1cc(C(=O)O)c(=O)[nH]c1-c1cnn(C)c1 [Cpd 346, 5-ethyl-6-(1-methyl-1H-pyrazol-4-yl)-2-oxo-1,2-dihydropyridine-3-carboxylic acid] | 12.5 to 150 (≈ 50.6 to 607 µM) | 12.5 to 150 (≈ 50.6 to 607 µM) | 12.5 to 150 (≈ 50.6 to 607 µM) | –
12 | CCc1c(-c2ccccc2N2CCCCC2)[nH]c(=O)c(C(=O)O)c1O [Cpd 29, 5-ethyl-4-hydroxy-2-oxo-6-[2-(piperidin-1-yl)phenyl]-1,2-dihydropyridine-3-carboxylic acid] | 1 to 3.5 (≈ 2.92 to 10.2 µM) | 1 to 3.5 (≈ 2.92 to 10.2 µM) | 12.5 to 150 (≈ 36.5 to 438 µM) | –
13 | CCc1cc(C(=O)O)c(=O)[nH]c1-c1ccnn1C [Cpd 344, 5-ethyl-6-(1-methyl-1H-pyrazol-5-yl)-2-oxo-1,2-dihydropyridine-3-carboxylic acid] | 12.5 to 150 (≈ 50.6 to 607 µM) | 12.5 to 150 (≈ 50.6 to 607 µM) | 12.5 to 150 (≈ 50.6 to 607 µM) | –
14 | CCc1cc(C(=O)O)c(=O)[nH]c1-c1ccc(N2CCCC2)c(OC)c1 [Cpd 66, 5-ethyl-6-[3-methoxy-4-(pyrrolidin-1-yl)phenyl]-2-oxo-1,2-dihydropyridine-3-carboxylic acid] | 12.5 to 150 (≈ 36.5 to 438 µM) | 3.5 to 12.5 (≈ 10.2 to 36.5 µM) | 12.5 to 150 (≈ 36.5 to 438 µM) | –
15 | CCc1c(-c2ccc(N3CCCC3)cc2C)[nH]c(=O)c(C(=O)O)c1O [Cpd 39, 5-ethyl-4-hydroxy-6-[2-methyl-4-(pyrrolidin-1-yl)phenyl]-2-oxo-1,2-dihydropyridine-3-carboxylic acid] | 1 to 3.5 (≈ 2.92 to 10.2 µM) | 3.5 to 12.5 (≈ 10.2 to 36.5 µM) | 12.5 to 150 (≈ 36.5 to 438 µM) | –
16 | CCc1c(-c2ccccc2N2CCCC2)[nH]c(=O)c(C(=O)O)c1O [Cpd 47, 5-ethyl-4-hydroxy-2-oxo-6-[2-(pyrrolidin-1-yl)phenyl]-1,2-dihydropyridine-3-carboxylic acid] | 3.5 to 12.5 (≈ 10.7 to 38.1 µM) | 1 to 3.5 (≈ 3.05 to 10.7 µM) | 12.5 to 150 (≈ 38.1 to 457 µM) | –
17 | CCc1cc(C(=O)O)c(=O)[nH]c1-c1ccc(N2CCCCC2)cc1F [Cpd 43, 5-ethyl-6-[2-fluoro-4-(piperidin-1-yl)phenyl]-2-oxo-1,2-dihydropyridine-3-carboxylic acid] | 12.5 to 150 (≈ 36.3 to 436 µM) | < 1 | 12.5 to 150 (≈ 36.3 to 436 µM) | –

Row | SMILES | MIC [1] [µg/mL] | MIC [2, 4] [µg/mL] | MIC [3] [µg/mL] | MIC [2] [µg/mL]
18 | CCc1cc(C(=O)O)c(=O)[nH]c1-c1cnc(N(C)C)nc1 [Cpd 19, 6-[2-(dimethylamino)pyrimidin-5-yl]-5-ethyl-2-oxo-1,2-dihydropyridine-3-carboxylic acid] | 12.5 to 150 (≈ 43.4 to 520 µM) | 12.5 to 150 (≈ 43.4 to 520 µM) | 12.5 to 150 (≈ 43.4 to 520 µM) | –
19 | CCc1cc(C(=O)O)c(=O)[nH]c1-c1ccc(I)cc1 [Cpd 80, 5-ethyl-6-(4-iodophenyl)-2-oxo-1,2-dihydropyridine-3-carboxylic acid] | 12.5 to 150 (≈ 33.9 to 406 µM) | 3.5 to 12.5 (≈ 9.48 to 33.9 µM) | 12.5 to 150 (≈ 33.9 to 406 µM) | –
20 | CCc1cc(C(=O)O)c(=O)[nH]c1-c1ccc(OC)cc1C [Cpd 33, 5-ethyl-6-(4-methoxy-2-methylphenyl)-2-oxo-1,2-dihydropyridine-3-carboxylic acid] | 12.5 to 150 (≈ 43.5 to 522 µM) | 12.5 to 150 (≈ 43.5 to 522 µM) | 12.5 to 150 (≈ 43.5 to 522 µM) | –
21 | CCc1c(-c2ccc(N(C)C)cc2C)[nH]c(=O)c(C(=O)O)c1O [Cpd 56, 6-[4-(dimethylamino)-2-methylphenyl]-5-ethyl-4-hydroxy-2-oxo-1,2-dihydropyridine-3-carboxylic acid] | 3.5 to 12.5 (≈ 11.1 to 39.5 µM) | 3.5 to 12.5 (≈ 11.1 to 39.5 µM) | 12.5 to 150 (≈ 39.5 to 474 µM) | –
22 | CCc1c(-c2ccc(OC)cc2N2CCCC2)[nH]c(=O)c(C(=O)O)c1O [Cpd 48, 5-ethyl-4-hydroxy-6-[4-methoxy-2-(pyrrolidin-1-yl)phenyl]-2-oxo-1,2-dihydropyridine-3-carboxylic acid] | 3.5 to 12.5 (≈ 9.77 to 34.9 µM) | 3.5 to 12.5 (≈ 9.77 to 34.9 µM) | 12.5 to 150 (≈ 34.9 to 419 µM) | –
23 | CCc1c(-c2ccc(OC)cc2N(C)C)[nH]c(=O)c(C(=O)O)c1O [Cpd 60, 6-[2-(dimethylamino)-4-methoxyphenyl]-5-ethyl-4-hydroxy-2-oxo-1,2-dihydropyridine-3-carboxylic acid] | 3.5 to 12.5 (≈ 10.5 to 37.6 µM) | 3.5 to 12.5 (≈ 10.5 to 37.6 µM) | 12.5 to 150 (≈ 37.6 to 451 µM) | –
24 | CCc1c(-c2ccccc2N(C)C)[nH]c(=O)c(C(=O)O)c1O [Cpd 58, 6-[2-(dimethylamino)phenyl]-5-ethyl-4-hydroxy-2-oxo-1,2-dihydropyridine-3-carboxylic acid] | 3.5 to 12.5 (≈ 11.6 to 41.3 µM) | 3.5 to 12.5 (≈ 11.6 to 41.3 µM) | 12.5 to 150 (≈ 41.3 to 496 µM) | –
25 | CCc1cc(C(=O)O)c(=O)[nH]c1-c1ccc(N2CCCCC2)cc1C [Cpd 52, 5-ethyl-6-[2-methyl-4-(piperidin-1-yl)phenyl]-2-oxo-1,2-dihydropyridine-3-carboxylic acid] | 12.5 to 150 (≈ 36.7 to 441 µM) | 12.5 to 150 (≈ 36.7 to 441 µM) | 12.5 to 150 (≈ 36.7 to 441 µM) | –
26 | CCc1cc(C(=O)O)c(=O)[nH]c1-c1ccc(OC)cc1N1CCCC1 [Cpd 35, 5-ethyl-6-[4-methoxy-2-(pyrrolidin-1-yl)phenyl]-2-oxo-1,2-dihydropyridine-3-carboxylic acid] | 12.5 to 150 (≈ 36.5 to 438 µM) | 12.5 to 150 (≈ 36.5 to 438 µM) | 12.5 to 150 (≈ 36.5 to 438 µM) | –
27 | CCc1c(-c2ccc(N3CCCCC3)c(OC)c2)[nH]c(=O)c(C(=O)O)c1O [Cpd 69, 5-ethyl-4-hydroxy-6-[3-methoxy-4-(piperidin-1-yl)phenyl]-2-oxo-1,2-dihydropyridine-3-carboxylic acid] | 3.5 to 12.5 (≈ 9.4 to 33.6 µM) | 3.5 to 12.5 (≈ 9.4 to 33.6 µM) | 12.5 to 150 (≈ 33.6 to 403 µM) | –
28 | CCc1cc(C(=O)O)c(=O)[nH]c1-c1ccc(N2CCCCC2)s1 [Cpd 308, 5-ethyl-2-oxo-6-[5-(piperidin-1-yl)thiophen-2-yl]-1,2-dihydropyridine-3-carboxylic acid] | 12.5 to 150 (≈ 37.6 to 451 µM) | 1 to 3.5 (≈ 3.01 to 10.5 µM) | 12.5 to 150 (≈ 37.6 to 451 µM) | –
29 | CCc1cc(C(=O)O)c(=O)[nH]c1-c1ccc(OC)cc1OC [Cpd 34, 6-(2,4-dimethoxyphenyl)-5-ethyl-2-oxo-1,2-dihydropyridine-3-carboxylic acid] | 12.5 to 150 (≈ 41.2 to 495 µM) | 12.5 to 150 (≈ 41.2 to 495 µM) | 12.5 to 150 (≈ 41.2 to 495 µM) | –
30 | CCc1cc(C(=O)O)c(=O)[nH]c1-c1ccc(C)cc1 [Cpd 27, 5-ethyl-6-(4-methylphenyl)-2-oxo-1,2-dihydropyridine-3-carboxylic acid] | 12.5 to 150 (≈ 48.6 to 583 µM) | < 1 | 12.5 to 150 (≈ 48.6 to 583 µM) | –
31 | CCc1cc(C(=O)O)c(=O)[nH]c1-c1ccc(N2CCO[C@H]3CNC[C@H]32)cc1.O=C(O)C(F)(F)F [Cpd 186, 5-ethyl-6-{4-[(4aR,7aS)-hexahydropyrrolo[3,4-b][1,4]oxazin-4(4aH)-yl]phenyl}-2-oxo-1,2-dihydropyridine-3-carboxylic acid trifluoroacetate] | 12.5 to 150 | – | 12.5 to 150 | 12.5 to 150
32 | CCc1c(-c2ccc(N3CCCCC3)cc2C)[nH]c(=O)c(C(=O)O)c1O [Cpd 51, 5-ethyl-4-hydroxy-6-[2-methyl-4-(piperidin-1-yl)phenyl]-2-oxo-1,2-dihydropyridine-3-carboxylic acid] | 3.5 to 12.5 (≈ 9.82 to 35.1 µM) | 3.5 to 12.5 (≈ 9.82 to 35.1 µM) | 12.5 to 150 (≈ 35.1 to 421 µM) | –
33 | CCc1c(-c2ccc(C)cc2)[nH]c(=O)c(C(=O)O)c1O [Cpd 28, 5-ethyl-4-hydroxy-6-(4-methylphenyl)-2-oxo-1,2-dihydropyridine-3-carboxylic acid] | 3.5 to 12.5 (≈ 12.8 to 45.7 µM) | < 1 | 12.5 to 150 (≈ 45.7 to 549 µM) | –
